Laboratory results taken from patent US8952024B2, “Herbicidal pyrimidone derivatives” (E I du Pont de Nemours and Company, priority 2009, dated 2015).

Key:
Assay in all cases: Test B pre-/postemergence plant response
Type in all cases: in vivo
[1] = test system: Surinam grass (Brachiaria decumbens)
In short: (§1)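 Plants treated either at seeding (loam/sand soil) or postemergence at 2 to 18 cm height, using a surfactant-containing non-phytotoxic solvent formulation. Evaluation was visual after 13 to 15 days, 0 to 100 scale relative to controls.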

[2] = test system: lambsquarters (Chenopodium album)
In short: as §1

[3] = test system: sunflower (common oilseed sunflower, Helianthus annuus); conditions: Preemergence; for Sunflower plant response rating: 125 g ai/ha
In short: as §1

[4] = test system: corn (Zea mays)
In short: as §1

[5] = test system: goosegrass (Eleusine indica)
In short: as §1

[6] = test system: woolly cupgrass (Eriochloa villosa)
In short: as §1

[7] = test system: large crabgrass (Digitaria sanguinalis)
In short: as §1

[8] = test system: pigweed (Amaranthus retroflexus)
In short: as §1

[9] = test system: galium (catchweed bedstraw, Galium aparine); conditions: Preemergence; for Galium plant response rating: 125 g ai/ha
In short: as §1

[10] = test system: Italian ryegrass (Lolium multiflorum)
In short: as §1

[11] = test system: nightshade (eastern black nightshade, Solanum ptycanthum); conditions: Preemergence; for Nightshade plant response rating: 125 g ai/ha
In short: as §1

[12] = test system: goosegrass (Eleusine indica); conditions: Preemergence, 62 g ai/ha; scale 0 to 100, 0 no effect, 100 complete control
[13] = 250 g ai/ha, Preemergence, 0 to 100 scale
[14] = Postemergence, 62 g ai/ha, scale 0 (no effect) to 100 (complete control), 13 to 15 days
[15] = Postemergence, 125 g ai/ha, visual rating after 13 to 15 days, scale 0 (no effect) to 100 (complete control)
[16] = Preemergence, 31 g ai/ha, scale 0 to 100 (0 no effect, 100 complete control)
[17] = Preemergence, 125 g ai/ha, 0 to 100 scale
[18] = Postemergence, 250 g ai/ha, scale 0 to 100
[19] = Preemergence, 62 g ai/ha, scale 0 to 100, 0 no effect, 100 complete control
[20] = 31 g ai/ha, scale 0 to 100 (0 no effect, 100 complete control)
[21] = Postemergence, 31 g ai/ha, scale 0 to 100 (0 no effect, 100 complete control)
[22] = 62 g ai/ha, scale 0 to 100, 0 no effect, 100 complete control

O=C1CCCC(O)=C1C(=O)c1cnc(-c2ccccc2)n(-c2ccccc2Br)c1=O [Compound 37]
Plant response rating, Surinam Grass [1, 13]: 100 | Plant response rating, Surinam Grass [1, 14]: 70 | Plant response rating, Surinam Grass [1, 15]: 75 | Plant response rating, Surinam Grass [1, 16]: 0 | Surinam Grass plant response rating [1, 17]: 55 | Plant response rating, Lambsquarters [2, 13]: 100 | Plant response rating, Lambsquarters [2, 14]: 98 | Plant response rating, Lambsquarters [2, 15]: 98 | Lambsquarters plant response rating [2, 18]: 100 | Plant response rating, Lambsquarters [2, 16]: 95 | Plant response rating, Lambsquarters [2, 19]: 98 | Lambsquarters plant response rating [2, 17]: 100 | Plant response rating, Sunflower ([3]; 250 g ai/ha, 0 to 100 scale): 90 | Plant response rating, Sunflower [3, 20]: 0 | Sunflower plant response rating ([3]; 0 to 100 scale): 45 | Plant response rating, Corn [4, 13]: 0 | Plant response rating, Corn [4, 21]: 0 | Plant response rating, Corn [4, 14]: 15 | Plant response rating, Corn [4, 15]: 60 | Corn plant response rating [4, 18]: 75 | Plant response rating, Corn [4, 16]: 0 | Plant response rating, Corn [4, 19]: 0 | Corn plant response rating [4, 17]: 0 | Plant response rating, Goosegrass [5, 13]: 100 | Plant response rating, Goosegrass [5, 14]: 85 | Plant response rating, Goosegrass [5, 15]: 85 | Goosegrass plant response rating [5, 18]: 95 | Plant response rating, Goosegrass [5, 16]: 0 | Goosegrass plant response rating [5, 17]: 80 | Plant response rating, Cupgrass, Woolly [6, 13]: 70 | Plant response rating, Cupgrass, Woolly [6, 21]: 55 | Plant response rating, Cupgrass, Woolly [6, 14]: 65 | Plant response rating, Cupgrass, Woolly [6, 15]: 75 | Cupgrass, Woolly plant response rating [6, 18]: 100 | Plant response rating, Cupgrass, Woolly [6, 16]: 0 | Plant response rating, Cupgrass, Woolly [6, 19]: 0 | Cupgrass, Woolly plant response rating [6, 17]: 10 | Plant response rating, Crabgrass, Large [7, 13]: 100 | Plant response rating, Crabgrass, Large [7, 21]: 70 | Plant response rating, Crabgrass, Large [7, 14]: 75 | Plant response rating, Crabgrass, Large [7, 15]: 85 | Crabgrass, Large plant response rating [7, 18]: 90 | Plant response rating, Crabgrass, Large [7, 16]: 0 | Plant response rating, Crabgrass, Large [7, 19]: 0 | Crabgrass, Large plant response rating [7, 17]: 10 | Plant response rating, Pigweed [8, 13]: 100 | Plant response rating, Pigweed [8, 14]: 85 | Plant response rating, Pigweed [8, 15]: 98 | Plant response rating, Pigweed [8, 16]: 100 | Pigweed plant response rating [8, 17]: 100 | Plant response rating, Galium ([9]; 250 g ai/ha, 0 to 100 scale): 100 | Plant response rating, Galium [9, 20]: 0 | Plant response rating, Galium [9, 22]: 10 | Galium plant response rating ([9]; 0 to 100 scale): 30 | Plant response rating, Ryegrass, Italian [10, 13]: 0 | Plant response rating, Ryegrass, Italian [10, 14]: 0 | Plant response rating, Ryegrass, Italian [10, 15]: 5 | Plant response rating, Ryegrass, Italian [10, 16]: 0 | Ryegrass, Italian plant response rating [10, 17]: 0 | Plant response rating, Nightshade ([11]; 250 g ai/ha, 0 to 100 scale): 85 | Plant response rating, Nightshade [11, 20]: 0 | Plant response rating, Nightshade [11, 22]: 40 | Nightshade plant response rating ([11]; 0 to 100 scale): 80 | Plant response rating, Goosegrass [12]: 0

5-[(1-ethyl-5-hydroxy-1H-pyrazol-4-yl)carbonyl]-2-phenyl-3-(phenylmethyl)-4(3H)-pyrimidinone [Compound 20]
Plant response rating, Surinam Grass [1, 13]: 5 | Plant response rating, Surinam Grass [1, 21]: 15 | Plant response rating, Surinam Grass [1, 14]: 25 | Plant response rating, Surinam Grass [1, 15]: 40 | Surinam Grass plant response rating [1, 18]: 65 | Plant response rating, Surinam Grass [1, 16]: 0 | Plant response rating, Surinam Grass [1, 19]: 0 | Surinam Grass plant response rating [1, 17]: 0 | Plant response rating, Lambsquarters [2, 13]: 100 | Plant response rating, Lambsquarters [2, 21]: 85 | Plant response rating, Lambsquarters [2, 14]: 95 | Plant response rating, Lambsquarters [2, 15]: 98 | Lambsquarters plant response rating [2, 18]: 100 | Plant response rating, Lambsquarters [2, 16]: 100 | Lambsquarters plant response rating [2, 17]: 100 | Plant response rating, Sunflower ([3]; 250 g ai/ha, 0 to 100 scale): 85 | Plant response rating, Sunflower [3, 20]: 50 | Plant response rating, Sunflower [3, 22]: 70 | Sunflower plant response rating ([3]; 0 to 100 scale): 70 | Plant response rating, Corn [4, 13]: 5 | Plant response rating, Corn [4, 21]: 0 | Plant response rating, Corn [4, 14]: 0 | Plant response rating, Corn [4, 15]: 10 | Corn plant response rating [4, 18]: 15 | Plant response rating, Corn [4, 16]: 0 | Plant response rating, Corn [4, 19]: 0 | Corn plant response rating [4, 17]: 0 | Plant response rating, Goosegrass [5, 13]: 98 | Plant response rating, Goosegrass [5, 21]: 15 | Plant response rating, Goosegrass [5, 14]: 50 | Plant response rating, Goosegrass [5, 15]: 70 | Goosegrass plant response rating [5, 18]: 95 | Plant response rating, Goosegrass [5, 16]: 30 | Goosegrass plant response rating [5, 17]: 85 | Plant response rating, Cupgrass, Woolly [6, 13]: 10 | Plant response rating, Cupgrass, Woolly [6, 21]: 0 | Plant response rating, Cupgrass, Woolly [6, 14]: 15 | Plant response rating, Cupgrass, Woolly [6, 15]: 20 | Cupgrass, Woolly plant response rating [6, 18]: 55 | Plant response rating, Cupgrass, Woolly [6, 16]: 0 | Plant response rating, Cupgrass, Woolly [6, 19]: 0 | Cupgrass, Woolly plant response rating [6, 17]: 0 | Plant response rating, Crabgrass, Large [7, 13]: 100 | Plant response rating, Crabgrass, Large [7, 21]: 60 | Plant response rating, Crabgrass, Large [7, 14]: 70 | Plant response rating, Crabgrass, Large [7, 15]: 80 | Crabgrass, Large plant response rating [7, 18]: 90 | Plant response rating, Crabgrass, Large [7, 16]: 0 | Plant response rating, Crabgrass, Large [7, 19]: 70 | Crabgrass, Large plant response rating [7, 17]: 85 | Plant response rating, Pigweed [8, 13]: 95 | Plant response rating, Pigweed [8, 21]: 75 | Plant response rating, Pigweed [8, 14]: 90 | Plant response rating, Pigweed [8, 15]: 100 | Pigweed plant response rating [8, 18]: 100 | Plant response rating, Pigweed [8, 16]: 85 | Pigweed plant response rating [8, 17]: 90 | Plant response rating, Galium ([9]; 250 g ai/ha, 0 to 100 scale): 50 | Plant response rating, Galium [9, 20]: 0 | Plant response rating, Galium [9, 22]: 5 | Galium plant response rating ([9]; 0 to 100 scale): 30 | Plant response rating, Ryegrass, Italian [10, 13]: 0 | Plant response rating, Ryegrass, Italian [10, 21]: 0 | Plant response rating, Ryegrass, Italian [10, 14]: 0 | Plant response rating, Ryegrass, Italian [10, 15]: 5 | Ryegrass, Italian plant response rating [10, 18]: 5 | Plant response rating, Ryegrass, Italian [10, 16]: 0 | Plant response rating, Ryegrass, Italian [10, 19]: 0 | Ryegrass, Italian plant response rating [10, 17]: 0 | Plant response rating, Nightshade ([11]; 250 g ai/ha, 0 to 100 scale): 100 | Plant response rating, Nightshade [11, 20]: 50 | Nightshade plant response rating ([11]; 0 to 100 scale): 98 | Plant response rating, Goosegrass [12]: 70
